Test results taken from BindingDB's records for doi:10.1111/j.1476-5381.1994.tb13148.x (Smithkline Beecham Pharmaceuticals, 1994).

What was measured:
[1] = molecular target: 5-hydroxytryptamine receptor 1D (Cavia porcellus, UniProt Q60484)
[2] = molecular target: T1, Gamma-aminobutyric acid receptor subunit alpha-1 (Homo sapiens, UniProt P14867)
T1 sequence (P14867 whole entry): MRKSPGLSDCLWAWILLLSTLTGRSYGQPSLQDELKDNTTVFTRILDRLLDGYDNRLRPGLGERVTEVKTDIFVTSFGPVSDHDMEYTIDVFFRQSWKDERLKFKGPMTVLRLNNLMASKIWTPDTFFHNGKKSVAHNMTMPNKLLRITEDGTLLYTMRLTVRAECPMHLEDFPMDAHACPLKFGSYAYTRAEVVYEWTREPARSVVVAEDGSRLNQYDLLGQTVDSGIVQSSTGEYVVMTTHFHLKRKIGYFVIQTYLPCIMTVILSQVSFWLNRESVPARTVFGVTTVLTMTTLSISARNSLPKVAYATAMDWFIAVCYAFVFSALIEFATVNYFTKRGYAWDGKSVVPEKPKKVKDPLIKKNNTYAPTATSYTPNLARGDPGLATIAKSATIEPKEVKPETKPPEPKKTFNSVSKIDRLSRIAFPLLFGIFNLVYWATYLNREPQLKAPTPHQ

[3] = molecular target: T2, Adenosine receptor A1 (Rattus norvegicus, UniProt P25099)
T2 sequence (P25099 whole entry): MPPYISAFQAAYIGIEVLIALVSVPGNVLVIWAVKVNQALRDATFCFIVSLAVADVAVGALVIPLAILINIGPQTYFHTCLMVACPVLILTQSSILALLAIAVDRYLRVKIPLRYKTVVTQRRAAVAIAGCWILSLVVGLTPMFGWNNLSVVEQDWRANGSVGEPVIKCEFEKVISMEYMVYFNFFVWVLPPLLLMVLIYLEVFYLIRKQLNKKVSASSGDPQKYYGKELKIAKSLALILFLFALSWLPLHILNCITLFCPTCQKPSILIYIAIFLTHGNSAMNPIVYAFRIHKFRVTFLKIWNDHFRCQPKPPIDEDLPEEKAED

[4] = molecular target: T3, Solute carrier family 22 member 1 (Rattus norvegicus, UniProt Q63089)
T3 sequence (Q63089 whole entry): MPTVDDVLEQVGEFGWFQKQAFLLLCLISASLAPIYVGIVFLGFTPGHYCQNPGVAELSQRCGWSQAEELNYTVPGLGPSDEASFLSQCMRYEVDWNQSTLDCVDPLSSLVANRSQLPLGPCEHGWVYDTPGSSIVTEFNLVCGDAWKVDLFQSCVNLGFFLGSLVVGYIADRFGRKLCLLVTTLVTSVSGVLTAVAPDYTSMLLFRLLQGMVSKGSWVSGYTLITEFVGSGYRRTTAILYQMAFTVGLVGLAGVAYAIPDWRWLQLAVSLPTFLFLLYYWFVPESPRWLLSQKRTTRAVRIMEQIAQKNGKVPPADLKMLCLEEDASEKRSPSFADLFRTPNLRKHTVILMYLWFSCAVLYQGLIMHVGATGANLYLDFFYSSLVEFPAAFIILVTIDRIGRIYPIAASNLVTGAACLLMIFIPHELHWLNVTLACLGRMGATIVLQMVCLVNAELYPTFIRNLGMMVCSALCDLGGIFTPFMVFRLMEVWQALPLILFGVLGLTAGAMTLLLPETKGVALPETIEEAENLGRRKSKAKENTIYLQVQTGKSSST

[5] = molecular target: Beta-1 adrenergic receptor (Homo sapiens, UniProt P08588)
[6] = molecular target: D(1A) dopamine receptor (Homo sapiens, UniProt P21728)
[7] = molecular target: 5-hydroxytryptamine receptor 2A (Homo sapiens, UniProt P28223)
[8] = molecular target: T4, Adrenergic alpha2 receptor (Mesocricetus auratus, UniProt Q60533)
T4 sequence (Q60533 whole entry): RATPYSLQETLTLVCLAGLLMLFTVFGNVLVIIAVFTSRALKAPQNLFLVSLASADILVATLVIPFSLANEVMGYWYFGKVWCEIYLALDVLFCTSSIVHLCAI

[9] = molecular target: Gamma-aminobutyric acid receptor subunit alpha-1 (Rattus norvegicus, UniProt P62813)
[10] = molecular target: D(3) dopamine receptor (Homo sapiens, UniProt P35462)
[11] = molecular target: T5, 5-hydroxytryptamine receptor 2C (Sus scrofa, UniProt G7ZKZ7)
T5 sequence (G7ZKZ7 whole entry): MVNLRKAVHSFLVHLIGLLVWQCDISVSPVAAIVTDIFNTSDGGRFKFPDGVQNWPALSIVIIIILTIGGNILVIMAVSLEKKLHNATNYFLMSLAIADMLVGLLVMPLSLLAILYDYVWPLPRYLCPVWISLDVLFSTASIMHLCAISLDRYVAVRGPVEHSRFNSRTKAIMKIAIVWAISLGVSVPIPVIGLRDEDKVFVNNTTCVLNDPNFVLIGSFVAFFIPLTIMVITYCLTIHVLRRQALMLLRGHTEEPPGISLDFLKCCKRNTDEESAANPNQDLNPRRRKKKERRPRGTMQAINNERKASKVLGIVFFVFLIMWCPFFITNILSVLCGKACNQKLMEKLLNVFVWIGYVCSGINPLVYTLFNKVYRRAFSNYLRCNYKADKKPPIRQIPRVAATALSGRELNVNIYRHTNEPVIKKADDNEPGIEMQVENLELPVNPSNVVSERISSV

[12] = molecular target: T6, 5-hydroxytryptamine receptor 3A (Rattus norvegicus, UniProt P35563)
T6 sequence (P35563 whole entry): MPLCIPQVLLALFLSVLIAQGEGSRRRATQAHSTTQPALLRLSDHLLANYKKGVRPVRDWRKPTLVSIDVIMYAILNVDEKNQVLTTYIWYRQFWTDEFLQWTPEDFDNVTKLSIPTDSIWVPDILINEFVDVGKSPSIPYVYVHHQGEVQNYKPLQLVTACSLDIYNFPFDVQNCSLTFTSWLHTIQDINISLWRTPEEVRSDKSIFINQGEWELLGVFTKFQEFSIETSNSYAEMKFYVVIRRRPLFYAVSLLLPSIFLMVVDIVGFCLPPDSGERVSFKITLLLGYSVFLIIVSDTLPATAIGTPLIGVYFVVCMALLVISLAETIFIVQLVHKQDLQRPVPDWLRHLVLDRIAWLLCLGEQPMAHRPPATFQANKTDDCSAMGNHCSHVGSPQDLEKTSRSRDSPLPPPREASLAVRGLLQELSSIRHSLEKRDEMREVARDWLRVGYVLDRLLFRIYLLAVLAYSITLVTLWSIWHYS

[13] = molecular target: Beta-2 adrenergic receptor (Homo sapiens, UniProt P07550)
[14] = molecular target: D(2) dopamine receptor (Homo sapiens, UniProt P14416)
[15] = molecular target: 5-hydroxytryptamine receptor 1E (Homo sapiens, UniProt P28566)
5-hydroxytryptamine receptor 1E, sequence (P28566 whole entry): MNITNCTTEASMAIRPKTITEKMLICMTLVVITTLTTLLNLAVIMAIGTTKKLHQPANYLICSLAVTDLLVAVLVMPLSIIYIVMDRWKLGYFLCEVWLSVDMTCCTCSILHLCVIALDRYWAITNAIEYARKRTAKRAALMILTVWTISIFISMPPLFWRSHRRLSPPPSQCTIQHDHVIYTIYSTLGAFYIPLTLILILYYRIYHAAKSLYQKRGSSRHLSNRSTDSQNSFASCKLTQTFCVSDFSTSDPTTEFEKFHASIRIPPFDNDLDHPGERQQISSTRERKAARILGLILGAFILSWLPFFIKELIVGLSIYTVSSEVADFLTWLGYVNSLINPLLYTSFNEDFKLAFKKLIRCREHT

D(1A) dopamine receptor, sequence (P21728 whole entry): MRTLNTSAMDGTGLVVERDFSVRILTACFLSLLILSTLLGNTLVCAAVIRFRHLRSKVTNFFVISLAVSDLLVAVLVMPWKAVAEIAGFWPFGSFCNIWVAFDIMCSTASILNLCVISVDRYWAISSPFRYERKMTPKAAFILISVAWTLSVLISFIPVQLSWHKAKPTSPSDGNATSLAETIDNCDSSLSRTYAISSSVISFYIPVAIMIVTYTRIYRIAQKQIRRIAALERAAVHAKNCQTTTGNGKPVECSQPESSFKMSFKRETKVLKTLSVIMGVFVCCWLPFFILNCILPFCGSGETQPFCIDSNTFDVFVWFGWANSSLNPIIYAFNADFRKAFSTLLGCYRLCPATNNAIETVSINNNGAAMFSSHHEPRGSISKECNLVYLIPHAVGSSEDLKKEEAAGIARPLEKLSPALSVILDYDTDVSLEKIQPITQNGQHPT
Beta-2 adrenergic receptor, sequence (P07550 whole entry): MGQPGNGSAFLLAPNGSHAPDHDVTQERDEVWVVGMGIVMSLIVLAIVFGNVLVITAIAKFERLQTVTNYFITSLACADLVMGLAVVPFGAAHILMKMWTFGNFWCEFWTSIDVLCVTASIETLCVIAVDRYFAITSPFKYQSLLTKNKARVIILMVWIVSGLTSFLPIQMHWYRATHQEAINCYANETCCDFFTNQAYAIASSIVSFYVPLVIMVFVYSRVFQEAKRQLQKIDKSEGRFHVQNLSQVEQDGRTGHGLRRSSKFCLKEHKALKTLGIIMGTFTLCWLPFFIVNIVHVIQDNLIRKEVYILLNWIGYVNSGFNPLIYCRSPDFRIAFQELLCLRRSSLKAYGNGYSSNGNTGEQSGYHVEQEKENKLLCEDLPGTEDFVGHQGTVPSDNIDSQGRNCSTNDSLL
D(3) dopamine receptor, sequence (P35462 as listed by the source): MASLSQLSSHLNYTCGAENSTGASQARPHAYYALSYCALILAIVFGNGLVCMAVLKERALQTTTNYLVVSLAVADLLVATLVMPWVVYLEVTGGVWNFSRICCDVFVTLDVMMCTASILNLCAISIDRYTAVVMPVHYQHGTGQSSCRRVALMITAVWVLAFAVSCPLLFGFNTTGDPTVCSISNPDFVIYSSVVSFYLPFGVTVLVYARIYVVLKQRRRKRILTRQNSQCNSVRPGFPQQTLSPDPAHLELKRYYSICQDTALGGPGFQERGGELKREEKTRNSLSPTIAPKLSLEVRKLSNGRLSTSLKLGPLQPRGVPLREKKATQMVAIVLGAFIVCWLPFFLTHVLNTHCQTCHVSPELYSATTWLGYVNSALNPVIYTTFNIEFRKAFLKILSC
Beta-1 adrenergic receptor, sequence (P08588 whole entry): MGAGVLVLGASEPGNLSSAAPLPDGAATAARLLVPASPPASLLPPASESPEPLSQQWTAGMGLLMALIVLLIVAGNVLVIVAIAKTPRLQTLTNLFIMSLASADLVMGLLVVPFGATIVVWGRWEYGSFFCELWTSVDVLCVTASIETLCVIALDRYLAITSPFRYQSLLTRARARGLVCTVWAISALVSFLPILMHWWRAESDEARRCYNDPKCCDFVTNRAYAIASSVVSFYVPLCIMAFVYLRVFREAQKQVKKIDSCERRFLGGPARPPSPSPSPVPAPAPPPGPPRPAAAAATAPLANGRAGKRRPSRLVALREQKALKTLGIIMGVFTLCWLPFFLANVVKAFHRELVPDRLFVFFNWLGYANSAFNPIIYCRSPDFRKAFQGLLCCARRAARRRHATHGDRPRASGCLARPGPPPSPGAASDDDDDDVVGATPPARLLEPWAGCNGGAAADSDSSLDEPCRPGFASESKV
D(2) dopamine receptor, sequence (P14416 whole entry): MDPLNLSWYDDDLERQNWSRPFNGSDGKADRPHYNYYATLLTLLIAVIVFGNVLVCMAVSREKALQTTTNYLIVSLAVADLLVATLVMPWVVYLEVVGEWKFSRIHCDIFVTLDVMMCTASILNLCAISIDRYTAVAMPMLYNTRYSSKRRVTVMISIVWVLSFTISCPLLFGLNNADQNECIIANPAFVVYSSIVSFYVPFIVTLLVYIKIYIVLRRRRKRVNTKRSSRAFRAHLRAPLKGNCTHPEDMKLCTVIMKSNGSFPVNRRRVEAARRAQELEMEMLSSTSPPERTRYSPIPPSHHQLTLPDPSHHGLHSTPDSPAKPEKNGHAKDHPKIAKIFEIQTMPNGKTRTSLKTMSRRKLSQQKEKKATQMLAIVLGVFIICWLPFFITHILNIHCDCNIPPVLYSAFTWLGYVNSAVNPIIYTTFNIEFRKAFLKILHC
5-hydroxytryptamine receptor 2A, sequence (P28223 whole entry): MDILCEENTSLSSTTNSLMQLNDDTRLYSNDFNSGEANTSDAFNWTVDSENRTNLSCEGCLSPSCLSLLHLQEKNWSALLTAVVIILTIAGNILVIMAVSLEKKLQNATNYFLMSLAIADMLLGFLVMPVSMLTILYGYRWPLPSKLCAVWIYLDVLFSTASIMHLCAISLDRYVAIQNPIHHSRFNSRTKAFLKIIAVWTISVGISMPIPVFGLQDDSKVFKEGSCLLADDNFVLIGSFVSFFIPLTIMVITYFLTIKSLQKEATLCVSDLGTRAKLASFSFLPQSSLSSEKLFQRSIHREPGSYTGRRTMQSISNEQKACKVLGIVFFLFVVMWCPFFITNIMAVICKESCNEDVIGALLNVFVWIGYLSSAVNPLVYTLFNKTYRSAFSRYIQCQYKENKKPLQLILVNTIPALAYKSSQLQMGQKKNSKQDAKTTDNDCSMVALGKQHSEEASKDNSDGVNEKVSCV
5-hydroxytryptamine receptor 1D, sequence (Q60484 whole entry): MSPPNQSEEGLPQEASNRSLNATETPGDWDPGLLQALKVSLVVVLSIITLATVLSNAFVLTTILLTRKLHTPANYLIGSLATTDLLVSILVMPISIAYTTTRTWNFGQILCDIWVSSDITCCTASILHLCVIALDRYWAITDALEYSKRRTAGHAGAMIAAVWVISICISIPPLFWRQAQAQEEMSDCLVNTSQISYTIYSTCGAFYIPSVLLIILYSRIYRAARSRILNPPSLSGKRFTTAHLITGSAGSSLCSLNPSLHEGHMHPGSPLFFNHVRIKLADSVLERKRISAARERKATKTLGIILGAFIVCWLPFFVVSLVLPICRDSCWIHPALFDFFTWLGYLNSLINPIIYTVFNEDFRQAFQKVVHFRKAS
Gamma-aminobutyric acid receptor subunit alpha-1 (Rattus norvegicus, UniProt P62813), sequence (P62813 whole entry): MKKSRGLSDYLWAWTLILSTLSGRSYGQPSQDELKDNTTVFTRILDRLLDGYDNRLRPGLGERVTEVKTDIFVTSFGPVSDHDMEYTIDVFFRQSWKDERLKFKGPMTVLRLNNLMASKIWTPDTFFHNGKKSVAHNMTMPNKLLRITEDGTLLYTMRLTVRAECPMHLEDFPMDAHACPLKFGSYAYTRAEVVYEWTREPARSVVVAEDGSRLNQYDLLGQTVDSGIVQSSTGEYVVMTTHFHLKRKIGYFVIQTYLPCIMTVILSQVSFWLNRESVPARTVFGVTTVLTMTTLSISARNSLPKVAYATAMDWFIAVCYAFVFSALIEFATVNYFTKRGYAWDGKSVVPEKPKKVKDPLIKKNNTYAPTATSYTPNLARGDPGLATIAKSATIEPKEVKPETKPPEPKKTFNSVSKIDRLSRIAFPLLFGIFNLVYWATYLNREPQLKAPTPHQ

Ki [1]: > 10000 nM
Ki [2]: > 10000 nM
Ki [3]: > 10000 nM
Ki [4]: 1000 nM
Ki [5]: 1000 nM
Ki [6]: 1000 nM
Ki [7]: 1000 nM
Ki [8]: 1000 nM
Ki [9]: > 10000 nM
Ki [10]: 1000 nM
Ki [11]: 126 nM
Ki [12]: 398 nM
Ki [13]: 1000 nM
Ki [14]: > 10000 nM
Ki [15]: > 10000 nM
SMILES: CCCCN1CCC(COC(=O)c2cc(Cl)c(N)c3c2OCCO3)CC1 [CAS_121881]
